pIC50: −log10 of the molar value. Read-outs that look alike come from different tables or passages of the source.

For assay [1], the system named is cGMP in the cerebrospinal fluid. As to the kind of experiment: Effect on rodent cerebrospinal fluid cGMP (rat). It counts as in vivo. The following applies: po, read-out: % CSF cGMP increase from vehicle control. The method, then: (§1) 3) Effect on Rodent Cerebrospinal Fluid cGMP
(§2) The test compound was administered to ICR male mice (Charles River Laboratories Japan, Inc.), Sprague-Dawley male rats (SD) (Charles River Laboratories Japan, Inc.) or Long-Evans male rats (LE) (Institute for Animal Reproduction), and the cerebrospinal fluid was then collected under pentobarbital anesthesia and stored at −20° C. cGMP in the cerebrospinal fluid was measured in accordance with the acetylation EIA procedure of cGMP EIA kit (GE Healthcare) or the non-acetylation procedure of cGMP EIA kit (Cayman) The result was an increase (C) in the amount of cGMP of the test compound-administered group (B) relative to the amount of cGMP of the vehicle-administered group (A), and was calculated using the following formula cGMP increase(C)=[(B)−(A)]/(A)×100(%)

Assay [2] has as its system cGMP in the hippocampus. As to the kind of experiment: Effect on rodent hippocampal cGMP. It counts as in vivo, rat. The following applies: po, read-out: % hippocampal cGMP increase from vehicle control. The protocol: 4) Effect on Rodent Hippocampal cGMP
The test compound was administered to Sprague-Dawley male rats (Charles River Laboratories Japan, Inc.) or Long-Evans male rats (Institute for Animal Reproduction) and then the animals were sacrificed with microwave under pentobarbital anesthesia, and the hippocampus was extracted. After measuring the wet weight, the hippocampus was frozen with liquid nitrogen and stored at −80° C. In the measurement of cGMP in the hippocampus, a 0.5 M perchloric acid/1 mM EDTA solution was added at 5% (w/v) based on the wet weight, and the mixture was homogenized. After the homogenization, the homogenate was centrifuged (10000 rpm, 15 min), and the supernatant was collected. The collected supernatant was neutralized with a 2 M potassium bicarbonate solution and centrifuged (13000 rpm, 10 min). The cGMP concentration in the supernatant was measured in accordance with the non-acetylation EIA procedure of cGMP EIA kit (GE Healthcare). The result was an increase (C) in the amount of cGMP of the test compound-administered group (B) relative to the amount of cGMP of the vehicle-administered group (A), and was calculated using the following formula. cGMP increase(C)=[(B)−(A)]/(A)×100(%)

The target of assay [3] is T1, human recombinant PDE9 protein (Homo sapiens, UniProt O76083).
T1 construct: His-tag (inferred from the Ni column purification; a myc His-tag vector is named only for the HEK293 expression check); made in house; host or cells: silkworm (pYNG vector, Katakura Industries)
As to the kind of experiment: PDE9 inhibitory activity test (measurement of PDE9 inhibitory action, [3H]-cGMP). It counts as biochemical. The following applies: PDE9 IC50, human recombinant PDE9, 30° C., 10 min. The source says:
1) Preparation of a Human Recombinant PDE9 Protein
An hsPDE9A 1cDNA fragment was amplified by being based on a base sequence (Accession No.: AF048837) of the hsPDE9A1 registered on GenBank data base, and by using the following sequences (Hokkaido System Science Co., Ltd.) as a primer and Human hippocampus cDNA library (Clontech Laboratories, Inc.) as a template DNA, and using Pfu50 DNA polymerase (Invitrogen Corp.), and by a polymerase chain reaction (PCR) of the following condition.
The condition of PCR: [96° C., 5 min]×1 cycle, [(96° C., 10 sec), (57° C., 5 sec), (72° C., 2 min)]×30 cycles
The obtained hsPDE9A 1 cDNA fragment was incorporated in a TOPO-TA cloning vector (Invitrogen Corp.), and the base sequence was checked; and thereafter, the resultant was transfected in a pcDNA 3.1/myc His-tag vector (Invitrogen Corp.) to thereby make a human PDE9 expression vector for mammal cells. The human PDE9 expression vector for mammal cells was transfected with transient expression to an HEK293 cell by using a LIPOFETAMINE 2000 Reagent (Gibco). It was confirmed by Western blot method that the PDE9A expressed in the HEK293 cell, and then, the human PDE9A 1cDNA fragment was transfected in a pYNG vector (Katakura Industries Co., Ltd.) to thereby make an expression vector for insect cells. A supernatant of homogenized silk worm in which a large amount of PDE9 was expressed was purified by an equilibrated Ni column using a buffer A (20 mmol/L Tris-HCl, pH: 8.0, 1 mmol/L DTT, 10 mmol/L imidazole). After 1 hour of mixing of the supernatant and the Ni column, cleaning was carried out using a buffer B (20 mmol/L Tris-HCl, pH: 8.0, 1 mmol/L […]), and elution was carried out using a buffer C (20 mmol/L Tris-HCl, pH: 8.0, 1 mmol/L DTT, 100 mmol/L imidazole). An elution fraction was preparatively collected to thereby obtain a PDE9 enzyme solution.
2) Measurement of PDE9 Inhibitory Action
To 100 μL of a buffer D (40 mmol/L Tris-HCl, pH: 7.4, 10 mmol/L MgCl2, 1 mM DTT, 2 μM cGMP) solution containing [^3H]-cGMP ([…]/mL), 10 μL of a compound solution for evaluation (a solution in which a compound was dissolved in DMSO and diluted so that the DMSO concentration became 5%) and 90 μL of a solution prepared by diluting the PDE9 enzyme solution prepared in the above with a buffer E (40 mmol/L Tris-HCl, pH: 7.4, 10 mmol/L MgCl2, 1 mM DTT, 1 mmol/L EGTA) were added under ice cooling. The resultant mixed solution was incubated at 30° C. for 10 min, and thereafter heated for 2 min in boiled water to stop the enzyme reaction of the PDE9. Then, the resultant was returned to room temperature; 50 μL of 5′-Nucleotidase (Biomol GmbH, 10 units/mL) was added thereto; and the resultant was incubated at 30° C. for 10 min to thereby convert [^3H]-5′-GMP formed in the previous reaction to [^3H]-guanosine. 500 μL of an anion exchange resin (Bio-Rad AG1-X2 resin, mesh size: 200-400, H2O:resin=2:1) was added to the resultant reaction liquid, and allowed to stand for 10 min, and thereafter centrifuged (2,000 rpm, 10 min); and a supernatant in which the [^3H]-guanosine was present was transferred to a LumaPlate (PerkinElmer, Inc.), and the radioactivity was measured by a TopCount NXT microplate scintillation and luminescence counter (PerkinElmer, Inc.).
The inhibition percentage of the evaluation compound was calculated using the following expression, taking the radioactivity of a control containing no evaluation compound to be (A), the radioactivity of a blank containing no enzyme to be (B), and the radioactivity of the evaluation compound to be (C). Inhibition percentage=100−{[(C)−(B)]/[(A)−(B)]}×100(%)
The IC50 value for PDE9 of the evaluation compound was determined from inhibition percentage for various concentrations.

For assay [4], the system named is cGMP in the cerebrospinal fluid. Nature of the assay: Effect on rodent cerebrospinal fluid cGMP (mouse). Type of assay: in vivo, ICR male mice. The note with it: 10 mg/kg p.o., sampling time 0.5 hr. The method, then:
as §1, §2

Setting [5] is: rat(LE), 30 mg/kg p.o., sampling time 1 hr.

T1 sequence (O76083 whole entry): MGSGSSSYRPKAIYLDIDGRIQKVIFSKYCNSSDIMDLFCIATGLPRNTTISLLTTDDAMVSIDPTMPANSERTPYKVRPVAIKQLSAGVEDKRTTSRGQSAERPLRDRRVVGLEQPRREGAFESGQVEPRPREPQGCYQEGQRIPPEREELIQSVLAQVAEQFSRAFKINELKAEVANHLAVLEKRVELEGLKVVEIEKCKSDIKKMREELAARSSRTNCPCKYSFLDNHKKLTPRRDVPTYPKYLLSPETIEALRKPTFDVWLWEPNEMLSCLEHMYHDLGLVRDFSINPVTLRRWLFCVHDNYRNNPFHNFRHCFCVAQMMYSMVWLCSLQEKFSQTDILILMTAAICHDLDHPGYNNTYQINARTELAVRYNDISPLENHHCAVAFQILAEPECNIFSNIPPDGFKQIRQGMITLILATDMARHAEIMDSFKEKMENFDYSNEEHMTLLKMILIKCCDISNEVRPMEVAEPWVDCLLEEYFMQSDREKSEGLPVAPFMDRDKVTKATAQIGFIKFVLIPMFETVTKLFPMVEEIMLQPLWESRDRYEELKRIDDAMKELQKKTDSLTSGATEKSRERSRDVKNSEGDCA

In the case of `COc1ncc(C)c(-c2ccc3c(c2)[nH]c(=O)c2cnn([C@H]4CCOC4)c23)c1C` [26 S], the change in vivo at 10 mg/kg in assay [1] (Rattus norvegicus, 1 h) is 274%; in assay [2] (Rattus norvegicus, 1 h), 58%.
Consider `COc1nc(C)cc(C)c1-c1ccc2c(c1)[nH]c(=O)c1cnn(C3CCOCC3)c12` [Example 4, 7-(2-methoxy-4,6-dimethylpyridin-3-yl)-1-(tetrahydro-2H-pyran-4-yl)-1H-pyrazolo[4,3-c]quinolin-4(5H)-one], for which, in assay [3], the pIC50 was 8.36. For the same molecule, the change in vivo at 30 mg/kg in assay [1] (Rattus norvegicus, 1 h) worked out at 246%; in assay [2] (Rattus norvegicus, 1 h), 25%.
`Cc1cc(OC(C)C)nc(C)c1-c1ccc2c(c1)[nH]c(=O)c1cnn([C@H]3CCOC3)c12` [Example 51, (S)-7-(6-isopropyloxy-2,4-dimethylpyridin-3-yl)-1-(tetrahydrofuran-3-yl)-1H-pyrazolo[4,3-c]quinolin-4(5H)-one]: the pIC50 in assay [3] was 8.31. Moreover, the change in vivo at 10 mg/kg stood at 189% in assay [1] (Rattus norvegicus, 1 h) and 17% in assay [2] (Rattus norvegicus, 1 h).
For `COc1cc(C)c(-c2cc3[nH]c(=O)c4cnn([C@H]5CCOC5)c4c3cc2F)c(C)n1` [Example 55, (S)-8-fluoro-7-(6-methoxy-2,4-dimethylpyridin-3-yl)-1-(tetrahydrofuran-3-yl)-1H-pyrazolo[4,3-c]quinolin-4(5H)-one], in that order: 7.76, 323% and 17%.
Regarding `COc1cc(C)c(-c2ccc3c(c2)[nH]c(=O)c2cnn(C4CCOCC4)c23)c(C)n1` [Example 3, 7-(6-methoxy-2,4-dimethylpyridin-3-yl)-1-(tetrahydro-2H-pyran-4-yl)-1H-pyrazolo[4,3-c]quinolin-4(5H)-one], the negative logarithm of the IC50 (pIC50) in assay [3] was 7.85. The change in vivo at 10 mg/kg came to 186% in assay [1] (Rattus norvegicus, 2 h) and 32% in assay [2] (Rattus norvegicus, 4 h).
With `COc1ncc(C)c(-c2ccc3c(c2)[nH]c(=O)c2cnn(C4COCCOC4)c23)c1C` [Example 43, 1-(1,4-dioxepan-6-yl)-7-(2-methoxy-3,5-dimethylpyridin-4-yl)-1H-pyrazolo[4,3-c]quinolin-4(5H)-one], in assay [3], the pIC50 is 7.98. Besides, the change in vivo at 10 mg/kg stood at 292% in assay [1] (Rattus norvegicus, 1 h) and 33% in assay [2] (Rattus norvegicus, 1 h).
For `COc1ncc(C)c(-c2cc3[nH]c(=O)c4cnn([C@H]5CCOC5)c4c3cc2F)c1C` [Example 53, (S)-8-fluoro-7-(2-methoxy-3,5-dimethylpyridin-4-yl)-1-(tetrahydrofuran-3-yl)-1H-pyrazolo[4,3-c]quinolin-4(5H)-one], in that order: 8.00, 202% and 27%.
For `COc1nc(C)cc(C)c1-c1cc2[nH]c(=O)c3cnn([C@H]4CCOC4)c3c2cc1F` [Example 54, (S)-8-fluoro-7-(2-methoxy-4,6-dimethylpyridin-3-yl)-1-(tetrahydrofuran-3-yl)-1H-pyrazolo[4,3-c]quinolin-4(5H)-one] the same measures were 8.06, 282% and 23%.
Take `Cc1cc(C)c(-c2ccc3c(c2)[nH]c(=O)c2cnn(C4CCOCC4)c23)c(C)n1` [Example 2, 7-(2,4,6-trimethylpyridin-3-yl)-1-(tetrahydro-2H-pyran-4-yl)-1H-pyrazolo[4,3-c]quinolin-4(5H)-one]: in assay [3], the negative-log IC50 (pIC50) was 7.60. Also, the “% CSF cGMP increase from vehicle control” value in assay [4] came to 110%.
As for `COc1ncc(C)c(-c2ccc3c(c2)[nH]c(=O)c2cnn(C4CCOCC4)c23)c1C` [Example 15, 7-(2-methoxy-3,5-dimethylpyridin-4-yl)-1-(tetrahydro-2H-pyran-4-yl)-1H-pyrazolo[4,3-c]quinolin-4(5H)-one], the pIC50 in assay [3] was 8.05. In addition, the results for the change in vivo at 30 mg/kg in assay [1] (setting [5]) and in assay [2] (setting [5]) were 203% and 33%, respectively.
Regarding `COc1cc(C)c(-c2ccc3c(c2)[nH]c(=O)c2cnn(C4CCOC4)c23)c(C)n1` (single isomer, unassigned; (-)) [29 (−), (−)-7-(6-methoxy-2,4-dimethylpyridin-3-yl)-1-(tetrahydrofuran-3-yl)-1H-pyrazolo[4,3-c]quinolin-4(5H)-one], the pIC50 in assay [3] is 7.51. For the same molecule, the change in vivo at 30 mg/kg came to 238% in assay [1] (Rattus norvegicus, 1 h) and 34% in assay [2] (Rattus norvegicus, 1 h).

Broadly, the pIC50 is −log10 of the IC50, conventionally taken in molar units.
